Experimental data published in patent publication US10875851B2, “Factor XIIa inhibitors” (Merck Sharp & Dohme Corp., priority 2016, dated 2020).

These molecules were tested against human Factor XIIa (Homo sapiens (Human), UniProt P00748) (assay: Factor XIIa Assay). Conditions: purified human Factor XIIa 500 pM; substrate n-Acetyl-Lys-Pro-Arg-AFC 100 μM; pH 7.4; read-out: FXIIa IC50.
Format: biochemical
In short: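 Purified human FXIIa at 500 pM final with 100 μM n-Acetyl-Lys-Pro-Arg-AFC in 50 mM HEPES, 150 mM NaCl, 5 mM CaCl2, 0.1% PEG 8000, pH 7.4, at room temperature or 37° C. Initial fluorogenic hydrolysis rates measured after enzyme–inhibitor equilibration; IC50 taken where Vi=Vo/2.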

Sequence of human Factor XIIa (P00748 373-615): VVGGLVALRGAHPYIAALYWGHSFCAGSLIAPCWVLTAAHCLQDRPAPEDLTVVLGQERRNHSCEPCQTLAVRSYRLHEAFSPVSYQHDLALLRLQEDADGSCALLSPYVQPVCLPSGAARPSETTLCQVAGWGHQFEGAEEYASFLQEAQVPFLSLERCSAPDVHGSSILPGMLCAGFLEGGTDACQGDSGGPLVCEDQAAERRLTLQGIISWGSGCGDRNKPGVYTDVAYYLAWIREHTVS

SMILES	IC50 [nM]
CN(C)CCCC[C@H](C(=O)N1CCN(C2=NC(C)(C)C(c3ccccc3)O2)C[C@H]1C(=O)NCc1cc2cnccc2s1)N(C)C (stereo partly drawn) [Example 147, (2S)-4-(4,4-dimethyl-5-phenyl-4,5-dihydro-1,3-oxazol-2-yl)-1-(N^2,N^2,N^6,N^6-tetramethyl-D-lysyl)-N-(thieno[3,2-c]pyridin-2-ylmethyl)piperazine-2-carboxamide]	44.1
O=C(NCc1cccs1)[C@@H]1CN(C(=O)Oc2ccccc2Cl)CCN1C(=O)[C@@H](CCCCN1CCCCC1)NC1CCC2(CC1)CCN(Cc1ccccc1)C2 (stereo partly drawn) [Example 88, 2-chlorophenyl (3S)-4-[N-(2-benzyl-2-azaspiro[4.5]dec-8-yl)-6-piperidin-1-yl-D-norleucyl]-3-[(thiophen-2-ylmethyl)carbamoyl]piperazine-1-carboxylate]	0.9
CC(C)N[C@H](CCCCN1CCCCC1)C(=O)N1CCN(C2=N[C@@H](C)[C@H](c3cccc(Br)c3)O2)C[C@H]1C(=O)NCc1cccc(Cl)c1 [Example 168, (2S)-4-[(4S,5S)-5-(3-bromophenyl)-4-methyl-4,5-dihydro-1,3-oxazol-2-yl]-N-(3-chlorobenzyl)-1-[N-(1-methylethyl)-6-piperidin-1-yl-D-norleucyl]piperazine-2-carboxamide]	8.2
C[C@@H]1N=C(N2CCN(C(=O)[C@@H](CCCCN(C)C)NC3CCC4(CC3)CCN(Cc3ccccc3)C4)[C@H](C(=O)NCc3cccs3)C2)O[C@H]1c1ccccc1 (stereo partly drawn) [Example 135, (2S)-1-[N^2-(2-benzyl-2-azaspiro[4.5]dec-8-yl)-N^6,N^6-dimethyl-D-lysyl]-4-[(4S,5S)-4-methyl-5-phenyl-4,5-dihydro-1,3-oxazol-2-yl]-N-(thiophen-2-ylmethyl)piperazine-2-carboxamide]	0.8
O=C(NCc1cccs1)[C@@H]1CN(C(=O)Oc2ccc(F)c3cccnc23)CCN1C(=O)[C@@H](CC1CCCCC1)NC1CCCCC1 [Example 32, 5-fluoroquinolin-8-yl (3S)-4-(N,3-dicyclohexyl-D-alanyl)-3-[(thiophen-2-ylmethyl)carbamoyl]piperazine-1-carboxylate]	5.2
C[C@H]1N=C(N2CCN(C(=O)[C@@H](CC3CCCCC3)NC3CCCCC3)[C@H](C(=O)NCc3cccs3)C2)O[C@H]1c1ccccc1 [Example 114, (2S)-1-(N,3-dicyclohexyl-D-alanyl)-4-[(4R,5S)-4-methyl-5-phenyl-4,5-dihydro-1,3-oxazol-2-yl]-N-(thiophen-2-ylmethyl)piperazine-2-carboxamide]	17.1
CN(C)CCCC[C@H](C(=O)N1CCN(C2=NC(C)(C)C(c3ccccc3)O2)C[C@H]1C(=O)NCc1cc(CN)cs1)N(C)C (stereo partly drawn) [Example 150, (2S)-N-{[4-(aminomethyl)thiophen-2-yl]methyl}-4-(4,4-dimethyl-5-phenyl-4,5-dihydro-1,3-oxazol-2-yl)-1-(N^2,N^2,N^6,N^6-tetramethyl-D-lysyl)piperazine-2-carboxamide]	48.5
C[C@@H]1N=C(N2CCN(C(=O)[C@@H](CCCCN3CCCCC3)NC3CCC(CN)CC3)[C@H](C(=O)NCc3cc4cnccc4s3)C2)O[C@H]1c1ccccc1 (stereo partly drawn) [Example 174, (2S)-1-{N-[4-(aminomethyl)cyclohexyl]-6-piperidin-1-yl-D-norleucyl}-4-[(4S,5S)-4-methyl-5-phenyl-4,5-dihydro-1,3-oxazol-2-yl]-N-(thieno[3,2-c]pyridin-2-ylmethyl)piperazine-2-carboxamide]	3
CS(=O)(=O)NCCCC[C@@H](NC1CCC2(CC1)CCN(Cc1ccccc1)C2)C(=O)N1CCN(C(=O)Oc2cccc3c2CCNC3)C[C@H]1C(=O)NCc1cccs1 (stereo partly drawn) [Example 81, 1,2,3,4-tetrahydroisoquinolin-5-yl (3S)-4-[N^2-(2-benzyl-2-azaspiro[4.5]dec-8-yl)-N^6-(methylsulfonyl)-D-lysyl]-3-[(thiophen-2-ylmethyl)carbamoyl]piperazine-1-carboxylate]	3.4
CC1(C)N=C(N2CCN(C(=O)[C@H](N)CCCCN3CCCCC3)[C@H](C(=O)NCc3cc(Cl)ccc3-n3cnnn3)C2)OC1c1ccccc1 (stereo partly drawn) [Example 157, (2S)-N-[5-chloro-2-(1H-tetrazol-1-yl)benzyl]-4-(4,4-dimethyl-5-phenyl-4,5-dihydro-1,3-oxazol-2-yl)-1-(6-piperidin-1-yl-D-norleucyl)piperazine-2-carboxamide]	54.8
CN(C)CCCC[C@@H](NC1CCCCC1)C(=O)N1CCN(C(=O)Oc2ccccc2Cl)C[C@H]1C(=O)NCc1cccs1 [Example 73, 2-chlorophenyl (3S)-4-(N^2-cyclohexyl-N^6,N^6-dimethyl-D-lysyl)-3-[(thiophen-2-ylmethyl)carbamoyl]piperazine-1-carboxylate]	1.1
COc1cc(CNC(=O)[C@@H]2CN(C(=O)Oc3ccccc3Cl)CCN2C(=O)[C@@H](CCCCNS(C)(=O)=O)NC2CCC3(CC2)CCN(Cc2ccccc2)C3)ccc1CN (stereo partly drawn) [Example 85, 2-chlorophenyl (3S)-3-{[4-(aminomethyl)-3-methoxybenzyl]carbamoyl}-4-[N^2-(2-benzyl-2-azaspiro[4.5]dec-8-yl)-N^6-(methylsulfonyl)-D-lysyl]piperazine-1-carboxylate]	8.3
O=C(NCc1cccs1)[C@@H]1CN(C(=O)Oc2ccccc2Cl)CCN1C(=O)[C@@H](CCCCN1CCCCC1)NC1CCCCC1 [Example 97, 2-chlorophenyl (3S)-4-(N-cyclohexyl-6-piperidin-1-yl-D-norleucyl)-3-[(thiophen-2-ylmethyl)carbamoyl]piperazine-1-carboxylate]	0.7
Cc1ccc(OC(=O)N2CCN(C(=O)[C@@H](CCCCNC(C)C)NC3CCC4(CC3)CCN(Cc3ccccc3)C4)[C@H](C(=O)NCc3cccs3)C2)c(Cl)c1C (stereo partly drawn) [Example 105, 2-chloro-3,4-dimethylphenyl (3S)-4-[N^2-(2-benzyl-2-azaspiro[4.5]dec-8-yl)-N^6-(1-methylethyl)-D-lysyl]-3-[(thiophen-2-ylmethyl)carbamoyl]piperazine-1-carboxylate]	0.5
CC(C)S(=O)(=O)N1CCC([C@@H](NC2CCCCC2)C(=O)N2CCN(C(=O)Oc3ccccc3Cl)C[C@H]2C(=O)NCc2cccs2)CC1 [Example 63, 2-chlorophenyl (3S)-4-[(2R)-2-(cyclohexylamino)-2-{1-[(1-methylethyl)sulfonyl]piperidin-4-yl}acetyl]-3-[(thiophen-2-ylmethyl)carbamoyl]piperazine-1-carboxylate]	2.6
COc1cc(CNC(=O)[C@@H]2CN(C(=O)Oc3ccc4ccccc4c3Cl)CCN2C(=O)[C@@H](CCCCN(C)C)N(C)C2CCC3(CC2)CCN(Cc2ccccc2)C3)ccc1CN (stereo partly drawn) [Example 87, 1-chloronaphthalen-2-yl (3S)-3-{[4-(aminomethyl)-3-methoxybenzyl]carbamoyl}-4-[N^2-(2-benzyl-2-azaspiro[4.5]dec-8-yl)-N^2,N^6,N^6-trimethyl-D-lysyl]piperazine-1-carboxylate]	1
CN(C)CCCC[C@H](C(=O)N1CCN(C2=NC(C)(C)C(c3ccccc3)O2)C[C@H]1C(=O)NCc1ccc2[nH]cc(Cl)c2c1)N(C)C (stereo partly drawn) [Example 145, (2S)-N-[(3-chloro-1H-indol-5-yl)methyl]-4-(4,4-dimethyl-5-phenyl-4,5-dihydro-1,3-oxazol-2-yl)-1-(N^2,N^2,N^6,N^6-tetramethyl-D-lysyl)piperazine-2-carboxamide]	6.7
